Laboratory results from the NIST ThermoML archive (doi:10.1021/je9003959).
Numbers after ± are expanded uncertainties.

Experiments:
[1] = refractive index (Na D-line) (dimensionless); xn = mol fraction of the nth substance listed; conditions: 101 kPa, Liquid, Standard Abbe refractometry, x2 = 0
[2] = xn = mol fraction of the nth substance listed; conditions: 101 kPa, Liquid, x2 = 0; for viscosity: Capillary tube (Ostwald / Ubbelohde) method
[3] = refractive index (Na D-line) (dimensionless); conditions: 101.33 kPa, Liquid, Standard Abbe refractometry
[4] = 101 kPa, Liquid; for viscosity: Capillary tube (Ostwald / Ubbelohde) method; for speed of sound: Cylindrical cavity resonance method

O [water] + CCN1CCCC1=O
Conditions	mass density, [2] [kg/m3]	refractive index, [1]	viscosity, [2] [mPa·s]
293 K	998.26 ± 1.2	1.33298 ± 0.00044	1.009 ± 0.01
298 K	–	1.33251 ± 0.00045	0.9029 ± 0.0094
303 K	–	1.33191 ± 0.00045	0.8133 ± 0.0084
313 K	992.26 ± 1.3	1.33061 ± 0.00046	0.6693 ± 0.007
323 K	–	1.32902 ± 0.00046	0.5611 ± 0.0061

Conditions	speed of sound [m/s]
[2], 313 K, Cylindrical cavity resonance method	1529.1 ± 1.2

O [water]
Conditions	mass density, [4] [kg/m3]	refractive index, [3]	speed of sound, [4] [m/s]	viscosity, [4] [mPa·s]
293 K	998.26 ± 1.2	1.33298 ± 0.00044	–	1.009 ± 0.01
298 K	–	1.33251 ± 0.00045	–	0.9029 ± 0.0094
303 K	–	1.33191 ± 0.00045	–	0.8133 ± 0.0084
313 K	992.26 ± 1.3	1.33061 ± 0.00046	1529.1 ± 1.2	0.6693 ± 0.007
323 K	–	1.32902 ± 0.00046	–	0.5611 ± 0.0061

CCN1CCCC1=O [1-ethyl-2-pyrrolidinone]
Conditions	mass density, [4] [kg/m3]	refractive index, [3]	speed of sound, [4] [m/s]	viscosity, [4] [mPa·s]
293 K	1000.55 ± 1.8	1.46461 ± 0.00077	1511.6 ± 2.1	2.133 ± 0.027
298 K	996.24 ± 1.8	1.46192 ± 0.00087	1492.5 ± 2.1	2.022 ± 0.026
303 K	991.93 ± 1.9	1.45791 ± 0.00075	1473.3 ± 2.1	1.832 ± 0.024
313 K	983.26 ± 2	1.45415 ± 0.00064	1435.3 ± 2.1	1.621 ± 0.021
323 K	974.56 ± 2.1	1.45147 ± 0.00062	1398 ± 2.1	1.358 ± 0.018
